# Entries after “also recorded” stand apart in the source; their conditions may differ. Like-named read-outs stand apart in the source and are kept apart here. Marks after values point to notes of the source that are not given here.
# Assays:
# H. halys nymphs = assay: Toxicity of MB against H. halys nymphs (treated filter paper in glass vial); type: in vivo, Halyomorpha halys; settings: mortality after 24 hr
# Experimental: Toxicity of MB against H. halys nymphs: The bioassays were carried out in glass vials (20 mL). Filter paper was cut into round shaped pieces (2.4 cm diameter). 50 μL MB acetone solution with different concentrations was loaded onto the filter paper evenly, and the filter paper was dried for 1 min and then put into the bottom of the vial. A small piece of green bean was put on the filter paper in the vial as food source. Different stages of H. halys nymphs were introduced into the vial and capped with a cotton ball. For each stage, 30 nymphs were used for each amount of MB loading. For the nymphs of the first instar, 10 nymphs were put into 1 vial. For the nymphs of the second and third instar, 5 nymphs were put into 1 vial. For the nymphs of the fourth instar, 3 nymphs were put into 1 vial. For the nymphs of the fifth instar, 2 nymphs were put into 1 vial. The mortality was assessed after 24 hr.
# (§1) Data analysis: Comparisons of different treatments were analyzed using one-way ANOVA followed by Ryan-Eibot-Gabriel-Welsch F test (SPSS 10.0 for Windows (George, D., and P. Mallery, SPSS for Windows step by step: A simple guide and reference, 4th edition, Allyn & Bacon, 2002)) for significance at α=0.05.
# H. halys eggs = type: in vivo
# Experimental: (§2) Ovicidal toxicity of MB and commercial pesticides: The aqueous solutions of MB with designated concentrations and commercially available pesticides with different concentrations of active ingredient (AI) were separately stored in glass spray bottles. The eggs (10 for H. halys and M. sexta, 100 for P. xylostella) were laid on filter papers in Petri dishes. Different aqueous solutions were sprayed on the surfaces of different eggs three times (˜0.5 mL) to completely cover the treatment areas. Then Petri dishes were covered with lids and maintained in a fume hood for 10 days. The Petri dishes were then inspected for presence of nymph/larvae development or numbers of unhatched eggs.
# as §1
# P. xylostella eggs = type: in vivo
# Experimental: as §2, §1
# M. sexta eggs = type: in vivo
# Experimental: as §2, §1
# [1] = by ingestion and inhalation; cited from earlier work
# D. suzukii = assay: Oviposition deterrent / adult toxicity of MB and other VOCs on pre-treated blueberries; type: in vivo, Drosophila suzukii; settings: for Activity against adult D. suzukii: 2 days exposure to pre-treated blueberries; for Toxicity / mortality against adult D. suzukii: blueberries soaked 2 h, 48 h (2 days) exposure; for Adults emerged from pre-treated berries / Pupae developed from pre-treated berries compared with blank control: further 10 days incubation at room temperature
# Experimental: Mortality assessed after 48 hrs exposure to pre-treated blueberries (60 berries/treatment, 1% solution soaking for 2 hr) as described below.
# Numbers assessed after 10 days incubation at room temperature as described below.
# Mortality assessed after 48 hrs exposure to pre-treated blueberries (60 berries/treatment, soaking for 2 hr) as described below.
# Numbers assessed after 10 days incubation at room temperature.
# (§3) Laboratory bioassay: Bioassays were conducted in USDA Beltsville laboratory at 25° C., 60% RH, under a 16L:8D photoperiod with ˜1700 lux light illuminance. A fume hood was maintained at same conditions with face velocity at 129 FPM. The plastic cups (32 oz, diameter 4.5 inches, deep 5 inches, or 16 oz, diameter 4.5 inches, deep 2.5 inches) were purchased from papermart.com (CA). The cover was cut into a 80 mm diameter hole and glued with an 85 mm diameter Nylon screen mesh (81×81 per inch) mesh size, BioQuip, CA). The polystyrene vials (height 95 mm, diameter 28.5 mm) and plugs were obtained from Fisher Scientific (Pittsburg, Pa.). The plastic cage (30×30×30 cm) was purchased from BugDorm (Rancho Dominguez, Calif.). Glass vial (20 mL), glass spray bottle (Amber glass with spray top, 30 mL), Petri dish (9 cm diameter), and Whatman filter paper (90 mm diameter) were obtained from VWR (Atlanta, Ga.). Deionized water (DI) containing 1% emulsifier (v/v), Tween 20 and Tween 80, at 1.1 ratio was used to make different VOCs water solutions and also used as blank control.
# Evaluation of MB and other VOCs as oviposition deterrent against D. suzukii: To examine the oviposition deterrent property of MB and other essential oils against D. suzukii, 10 blueberries were separately dipped in 100 mL MB or other essential oil aqueous emulsions at 1% concentration for 2 h. Another 10 blueberries were dipped in 100 mL DI water for 2 h as control. The blueberries were separately placed on different Petri dishes and allowed to air dry for 2 h. After a Petri dish containing 10 treated blueberries was put into a plastic cup (32 oz), 10 mixed sex adults D. suzukii were subsequently introduced into each cup. Mortality of the D. suzukii was examined after 48 h. After removing all insects, the blueberries were maintained at room temperature for another 10 days. Present of adults were subsequently assessed and development of larvae and pupae was further inspected by dissection of the berries.
# Drosophila suzukii = assay: Impact of MB on D. suzukii control: pre-infested blueberries dipped in MB emulsion; type: in vivo; settings: 1% MB, berries pre-infested 4 days, dipped 2 h, 10 days incubation at room temperature
# Experimental: Assessment was conducted after 10 days incubation at room temperature.
# as §3, with “Deionized water (DI) containing 1% emulsifier (v/v), Tween 20 and Tween 80, at 1.1 ratio was used to make different VOCs water solutions and also used as blank control.” left out
# Impact of MB on D. suzukii control: To investigate the acute toxicity of MB against D. suzukii, 100 blueberries were placed in a plastic cage (30×30×30 cm) and infested by 100 mixed sex adult D. suzukii for 4 days. […] Present of adults were then subsequently assessed and development of larvae and pupae was further inspected by dissection of the berries. […]
smiles,measurement,setting,value
"COC(=O)c1ccccc1 [MB, methyl benzoate]",LC50 (95% CL),H. halys nymphs; 1st instar nymphs,1.03 (0.93-1.10) μL/via1
same,LC50 (95% CL),H. halys nymphs; 2nd instar nymphs,1.01 (0.86-1.12) μL/via1
same,LC50 (95% CL),H. halys nymphs; 3rd instar nymphs,1.23 (1.12-1.33) μL/via1
same,LC50 (95% CL),H. halys nymphs; 4th instar nymphs,2.39 (2.19-2.60) μL/via1
same,LC50 (95% CL),H. halys nymphs; 5th instar nymphs,1.77 (1.60-1.93) μL/via1
same,Dosage (active ingredient) needed to reach 100% egg mortality,H. halys eggs; H. halys eggs,0.0637 mg/cm^2
same,Hatchability (%) (mean ± SE),"H. halys eggs; H. halys eggs, MB 0.025%, AI dose 0.0016 mg/cm^2, 10 days exposure",67 ± 8.8^d %
same,Hatchability (%) (mean ± SE),"H. halys eggs; H. halys eggs, MB 0.05%, AI dose 0.0032 mg/cm^2, 10 days exposure",63 ± 17.6^cd %
same,Hatchability (%) (mean ± SE),"H. halys eggs; H. halys eggs, MB 0.1%, AI dose 0.0064 mg/cm^2, 10 days exposure",60 ± 10.0^cd %
same,Hatchability (%) (mean ± SE),"H. halys eggs; H. halys eggs, MB 0.25, AI dose 0.0159 mg/cm^2, 10 days exposure",43 ± 6.7^abcd %
same,Hatchability (%) (mean ± SE),"H. halys eggs; H. halys eggs, MB 1%, AI dose 0.0637 mg/cm^2, 10 days exposure",0 ± 0.0^a %
same,Hatchability (%) (mean ± SE),"H. halys eggs; H. halys eggs, MB 2%, AI dose 0.1273 mg/cm^2, 10 days exposure",0 ± 0.0^a %
same,Hatchability (%) (mean ± SE),"H. halys eggs; H. halys eggs, MB 4%, AI dose 0.2546 mg/cm^2, 10 days exposure",0 ± 0.0^a %
same,"Ovicidal potency compared with commercial pesticides, in words","H. halys eggs; H. halys eggs, MB at 0.0318 mg/cm^2 vs deltamethrin 0.0019, ζ-cypermethrin 0.0223, carbaryl 0.0080, β-cyfluthrin 0.1592, sulfur/pyrethrin 0.6525, organic essential oil product 0.3979 mg/cm^2",as potent as
same,LC95 (95% CL),"H. halys eggs; H. halys eggs, spray, 10 days",0.048 mg/cm^2
same,Hatchability (%) (mean ± SE),H. halys eggs; in vivo,17 ± 12.0^ab %
same,LC50 (95% CL),H. halys eggs; in vivo,0.020 mg/cm^2
same,"Times more toxic than organic commercial product (2-phenethyl propionate, clover oil, rosemary oil, thyme oil)",H. halys eggs; in vivo,12 times
same,Times more toxic than sulfur & pyrethrin mixture,H. halys eggs; in vivo,20 times
same,Times more toxic than the conventional pyrethroid (β-cyfluthrin),H. halys eggs; in vivo,5 times
same,Dose needed to reach 100% egg mortality,P. xylostella eggs; P. xylostella eggs,0.0064 mg/cm^2
same,Hatchability (%) (mean ± SE),"P. xylostella eggs; P. xylostella eggs, MB 0.025%, AI dose 0.0016 mg/cm^2, 10 days exposure",38 ± 5.5^c %
same,Hatchability (%) (mean ± SE),"P. xylostella eggs; P. xylostella eggs, MB 0.05%, AI dose 0.0032 mg/cm^2, 10 days exposure",13 ± 5.0^ab %
same,Hatchability (%) (mean ± SE),"P. xylostella eggs; P. xylostella eggs, MB 0.1%, AI dose 0.0064 mg/cm^2, 10 days exposure",0 ± 0.3^a %
same,Hatchability (%) (mean ± SE),"P. xylostella eggs; P. xylostella eggs, MB 0.25, AI dose 0.0159 mg/cm^2, 10 days exposure",1 ± 0.0^a %
same,Hatchability (%) (mean ± SE),"P. xylostella eggs; P. xylostella eggs, MB 0.5%, AI dose 0.0318 mg/cm^2, 10 days exposure",0 ± 0.0^a %
same,Hatchability (%) (mean ± SE),"P. xylostella eggs; P. xylostella eggs, MB 1%, AI dose 0.0637 mg/cm^2, 10 days exposure",0 ± 0.0^a %
same,Ovicidal activity in words,"P. xylostella eggs; P. xylostella eggs, MB at as low as 0.0032 mg/cm^2 dose",potent ovicidal activity
same,Dose for 100% egg mortality of P. xylostella: times less than H. halys eggs needed,P. xylostella eggs; P. xylostella vs H. halys eggs,10 times
same,Dose for 100% egg mortality of P. xylostella: times less than M. sexta eggs needed,P. xylostella eggs; P. xylostella vs M. sexta eggs,20 times
same,LC50 (95% CL),P. xylostella eggs; in vivo,0.001 mg/cm^2
same,LC95 (95% CL),P. xylostella eggs; in vivo,0.005 mg/cm^2
same,"Ovicidal toxicity compared with commercial pesticides, in words","M. sexta eggs; M. sexta eggs, MB 0.0637 mg/cm^2 vs bifenthrin & ζ-cypermethrin 0.0239 and essential oil product 0.3979 mg/cm^2",significantly better
same,Hatchability (%) (mean ± SE),"M. sexta eggs; M. sexta eggs, MB 0.025%, AI dose 0.0016 mg/cm^2, 10 days exposure",67 ± 8.8^c %
same,Hatchability (%) (mean ± SE),"M. sexta eggs; M. sexta eggs, MB 0.05%, AI dose 0.0032 mg/cm^2, 10 days exposure",63 ± 8.8^c %
same,Hatchability (%) (mean ± SE),"M. sexta eggs; M. sexta eggs, MB 0.1%, AI dose 0.0064 mg/cm^2, 10 days exposure",50 ± 17.3^c %
same,Hatchability (%) (mean ± SE),"M. sexta eggs; M. sexta eggs, MB 0.25, AI dose 0.0159 mg/cm^2, 10 days exposure",40 ± 15.3^c %
same,Hatchability (%) (mean ± SE),"M. sexta eggs; M. sexta eggs, MB 0.5%, AI dose 0.0318 mg/cm^2, 10 days exposure",20 ± 10.0^abc %
same,Hatchability (%) (mean ± SE),"M. sexta eggs; M. sexta eggs, MB 1%, AI dose 0.0637 mg/cm^2, 10 days exposure",3 ± 3.35^ab %
same,Hatchability (%) (mean ± SE),"M. sexta eggs; M. sexta eggs, MB 2%, AI dose 0.1273 mg/cm^2, 10 days exposure",0 ± 0.0^a %
same,Hatchability (%) (mean ± SE),"M. sexta eggs; M. sexta eggs, MB 4%, AI dose 0.2546 mg/cm^2, 10 days exposure",0 ± 0.0^a %
same,LC50 (95% CL),"M. sexta eggs; M. sexta eggs, spray, 10 days",0.015 mg/cm^2
same,LC95 (95% CL),"M. sexta eggs; M. sexta eggs, spray, 10 days",0.060 mg/cm^2
same,Toxicity against M. sexta eggs in words,M. sexta eggs; MB at 0.0637 mg/cm^2 dose,potent toxic agent
same,Human toxicity,[1],low to moderate human toxicity
same,Activity against adult D. suzukii,D. suzukii; 0.1% MB,no significant activity
same,Activity against adult D. suzukii,D. suzukii; 0.5% MB,Little activity
same,Toxicity / mortality against adult D. suzukii,D. suzukii; 1% solution,complete mortality; also recorded: potent activity
same,Toxicity / mortality against adult D. suzukii,"D. suzukii; 1% solution, listed as methyl benzoate",complete mortality
same,Adults emerged from pre-treated berries,D. suzukii; 1% solution,no adults emerged
same,Pupae developed from pre-treated berries compared with blank control,D. suzukii; 1% solution,significantly fewer pupae developed
same,Activity against adult D. suzukii,D. suzukii; 5% MB,potent activity
same,Adults emerged from pre-treated berries,D. suzukii; 5% MB,no adults emerged
same,Pupae developed from pre-treated berries compared with blank control,D. suzukii; 5% MB,significantly fewer pupae developed
same,Larvae/pupae development and adult emergence from pre-infested blueberries,Drosophila suzukii,no larvae and pupae developed or adult flies emerged
same,Mortality of D. suzukii in pre-infested blueberries,Drosophila suzukii,complete mortality
